Data from paper PMC6274376, “Naturally Inspired Molecules as Multifunctional Agents for Alzheimer’s Disease Treatment” (Molecules, 2016).
Where “and” joins values, the source holds several entries; their conditions need not be identical. Equal entries are not always repeated. Structures can show the parent of a compound that is named as a salt. Each block holds one molecule with its values, some of them ahead of it.

Columns and labels:
hBACE-1 = hBACE-1 (Homo sapiens, UniProt P56817); test: BACE-1 FRET inhibition assay; assay type: biochemical; conditions: for IC50: FRET assay, average of multiple experiments each in triplicate, ± SEM; for inhibition at 5 µM: tested at 5 µM concentration
Experimental: The new benzophenone-based hybrids 3–7 presented in this study were first evaluated for their in vitro ability to inhibit the enzymatic activity of BACE-1, by means of a biochemical assay performed using the fluorescence resonance energy transfer (FRET) methodology and in comparison to inhibitor IV [22] as reference compound (Table 1). For the most interesting compounds 3–5, endowed with the orto-hydroxycarbonyl substitution pattern, the neuroprotective potential was determined as lack of toxic effects on neuronal cell viability and as Cu(II) chelating activity (Table 2); moreover, their direct interactions with Cu(II) ion were confirmed by a UV-vis spectrophotometric study.
Inhibition studies were performed using the following procedure: 5 μL of test compound (or DMSO) were pre-incubated with 175 μL of enzyme (10.37 nM, final concentration) in 20 mM NaOAc pH 4.5 containing CHAPS (0.1% w/v) for 1 h at r.t.; M-2420 (3 μM, final concentration) was then added and left to react for 15 min. The fluorescence signal was read at λem = 405 nm (λexc = 320 nm). DMSO concentration in the final mixture was maintained below 5% (v/v) to guarantee no significant loss of enzyme activity.Fluorescence intensities with and without inhibitor were compared and the percent inhibition due to the presence of test compounds was calculated. The background signal was measured in control wells containing all the reagents, except theenzymeand subtracted. The % inhibition due to the presence of increasing test compound concentration was calculated by the following expression: 100 − (IFi/IFo × 100) where IFi and IFo are the fluorescence intensities obtained for the enzyme in the presence and in the absence of inhibitor, respectively. Inhibition curves were obtained for each compound by plotting the % inhibition versus the logarithm of inhibitor concentration in the assay sample. The linear regression parameters were determined and the IC50 extrapolated (GraphPad Prism 4.0, GraphPad Software Inc., San Diego, CA, USA).

[1] = UV-vis spectrophotometric evaluation of Cu(II) ion complexation; assay type: physicochemical
From the text: Chalcone conjugates 4 and 5 were investigated to evaluate their ability to complex Cu(II) ions via a UV-vis spectrophotometric study.
Therefore, we decided to carry on the spectrophotometric measurements in a mixed solvent: aqueous MOPS aqueous buffer […] pH 7.4 /DMF in 1:4 ratio, respectively. Flavonoids bearing the 4-carbonyl-5-hydroxyl chelation site have characteristic UV-vis spectra, characterized by a wide and non-structured band centred around 370–380 nm, with a molar extinction coefficient of 50,000 cm^−1·M^−1 that is attributed to HOMO-LUMO transition with a π-π* character.
All reagents and solvents were used as received (from Aldrich, St. Louis, MO, USA) without further purification: copper(II) sulphate hydrate (≥98%), 3-(N-Morpholino)propanesulfonic acid (MOPS, ≥99.5%), sodium hydroxide (≥98%), N,N-dimethylformamide (spectroscopic grade, DMF). A Milli-Q system (Millipore, Billerica, MA, USA) was used for the purification of water (resistivity ≥18.2 MΩ). MOPS bufferstock solution were obtained by a dissolution in Milli-Q water of 3-(N-morpholino)propane sulphonic acid to a final concentration of 10^−3 M. The pH was corrected with a solution of sodium hydroxide 1 N to a value of pH 7.4. Absorption spectra were recorded on a Perkin-Elmer Lambda 45 spectrophotometer at room temperature. Spectrophotometric titrations were performed as follows: stock solutions of ligands (ca. 10^−3 M) were prepared in DMF, diluted down to the desired concentration, in the quartz cuvette, in MOPS buffer 10^−3 M pH 7.4/DMF (1:4) to a final volume of 2.5 mL and then titrated by adding increasing amounts of Cu(II) (3.04 × 10^−3 Min DMF).

SH-SY5Y cells = test: Neurotoxicity, MTT cell viability assay; assay type: cell-based, human; conditions: for IC50: Homo sapiens, SH-SY5Y cells, 24 h treatment, 1.25–40 µM, MTT, mean ± SD
Experimental: Cytotoxic effects in several in vitro or in vivo models have been reported for some chalcones. Therefore, to discriminate the neurotoxic concentrations of the conjugates 3–5 we evaluated the cell viability of human neuronal SH-SY5Y cells after 24 h treatment with these conjugate at different concentrations (1.25–40 μM) using the MTT assay. […] Thus, the presence of an α,β-unsatured carbonyl fragment seems to positively influence the degree of neuronal toxicity, leading to molecules endowed with a favorable SI.
Human neuronal (SH-SY5Y) cells were routinely grown in Dulbecco’s modified Eagle’ Medium (DMEM) supplemented with 10% fetal bovine serum, 2 mmol/L-glutamine, 50 U·mL^−1penicillin and 50 μg·mL^−1streptomycin at 37 °C in a humidified incubator with 5% CO2.
To evaluate the neurotoxicity of compounds, the SH-SY5Y cells were seeded in 96-well plates at 2 × 10^4 cells/well, incubated for 24 h and subsequently treated with various concentrations of compounds (1.25–40 µM) for 24 h at 37 °C in 5% CO2;. The cell viability in terms of mitochondrial metabolic function was evaluated by the reduction in 3-(4,5-dimethyl-2-thiazolyl)-2,5-diphenyl-2H-tetrazolium bromide (MTT) to formazan as previously described. The quantity of formazan was directly proportional to the number of viable cells. Briefly, the treatment medium was replaced with MTT (5 mg/mL) in phosphate-buffered saline (PBS) for 2 h at 37 °C in 5% CO2. After washing with PBS, the formazan crystals were dissolved with isopropanol. The amount of formazan was measured (570 nm, reference filter 690 nm) using a multilabel plate reader (VICTOR™ X3, PerkinElmer, Waltham, MA, USA). The neurotoxicity is expressed as concentration of compound resulting in 50% inhibition of cell viability.

[2] = Cu(II) chelating assay (bathocuproinedisulfonic acid disodium salt, BCS); assay type: physicochemical
Experimental: Data were expressed as chelating activity percentage (Table 2).
The Cu(II) chelating activity of the compounds was determined using the bathocuproinedisulfonic acid disodium salt (BCS) assay as previously described. Briefly, 50 μL of a 0.25 mM CuSO4 solution were mixed for 2 min with 50 μL of 5–20 µM compound solution in 100 µL of HEPES buffer (15 mM). Hydroxylamine (1 mM) was added after 2 min in order to reduce non-chelated cupric ions into cuprous ones. Finally, 50 μL of BCS (5 mM) or water (blank) was added and the absorbance at 490 nm was measured by spectrophotometry using a multilabel plate reader (VICTOR™ X3, PerkinElmer, Waltham, MA, USA) immediately and at 5 min. Na2EDTA (5–20 µM) was used as a positive control. The ability of the test compounds to chelate cupric ions was calculated using the following equation: chelating activity (%) = [1 − (Abs BCS + compound/Abs BCS) × 100].

CatD = CatD (Homo sapiens, UniProt P07339); test: CatD inhibition; assay type: biochemical; conditions: up to 0.5 μM
[3] = 5 µM compound, fixed 40 µM CuSO4
[4] = 10 µM compound, fixed 40 µM CuSO4
[5] = 20 µM compound, fixed 40 µM CuSO4, mean ± SD

hBACE-1, sequence (P56817 46-501): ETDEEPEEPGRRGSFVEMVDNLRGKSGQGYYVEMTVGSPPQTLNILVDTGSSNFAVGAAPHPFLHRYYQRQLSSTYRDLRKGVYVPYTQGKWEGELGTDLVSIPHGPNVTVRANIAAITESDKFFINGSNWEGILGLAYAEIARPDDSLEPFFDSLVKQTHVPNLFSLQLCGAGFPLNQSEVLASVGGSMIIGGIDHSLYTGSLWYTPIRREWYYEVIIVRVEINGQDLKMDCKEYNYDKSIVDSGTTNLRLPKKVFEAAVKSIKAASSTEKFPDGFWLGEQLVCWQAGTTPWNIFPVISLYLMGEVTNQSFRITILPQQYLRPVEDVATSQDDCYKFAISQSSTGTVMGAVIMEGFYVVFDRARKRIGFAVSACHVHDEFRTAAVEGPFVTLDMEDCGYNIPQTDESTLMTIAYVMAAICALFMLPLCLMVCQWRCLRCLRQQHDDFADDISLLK
CatD, sequence (P07339 65-412): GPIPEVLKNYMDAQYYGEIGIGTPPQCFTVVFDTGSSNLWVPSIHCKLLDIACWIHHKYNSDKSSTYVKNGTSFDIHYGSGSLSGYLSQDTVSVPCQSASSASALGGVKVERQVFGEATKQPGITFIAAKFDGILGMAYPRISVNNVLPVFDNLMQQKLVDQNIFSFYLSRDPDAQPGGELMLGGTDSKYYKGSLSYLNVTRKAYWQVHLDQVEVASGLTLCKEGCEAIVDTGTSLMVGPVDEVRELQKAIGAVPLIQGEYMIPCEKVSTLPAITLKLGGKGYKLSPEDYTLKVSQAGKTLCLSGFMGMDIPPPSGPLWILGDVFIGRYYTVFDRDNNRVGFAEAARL

IC50 (hBACE-1): 1.56 ± 0.23 µM
Molecule: COc1cc(C2CC(=O)c3ccc(OCCOc4ccc(C(=O)c5ccc(CN(C)Cc6ccccc6)cc5)cc4)cc3O2)cc(OC)c1OC (centres unmarked) [Compound 6, 7-{2-[4-(4-Benzylmethylaminomethylbenzoyl)phenoxy]ethoxy}-2-(3,4,5-trimethoxyphenyl)chroman-4-one]

melting point: 182 to 194 °C
Molecule: COc1cc(C2CC(=O)c3ccc(OCCOc4ccc(C(=O)c5ccc(CN(C)Cc6ccccc6)cc5)cc4)cc3O2)cc(OC)c1OC (centres unmarked) (as salt: HCl) [Compound 6, 7-{2-[4-(4-Benzylmethylaminomethylbenzoyl)phenoxy]ethoxy}-2-(3,4,5-trimethoxyphenyl)chroman-4-one]

melting point: 172 to 195 °C
Molecule: CN(Cc1ccccc1)Cc1ccc(C(=O)c2ccc(OCCOc3ccc4c(c3)OC(c3cccc5ccccc35)CC4=O)cc2)cc1 (centres unmarked) (as salt: HCl) [Compound 7]

IC50 (hBACE-1): 3.97 ± 0.33 µM
Molecule: CN(Cc1ccccc1)Cc1ccc(C(=O)c2ccc(OCCOc3ccc4c(c3)OC(c3cccc5ccccc35)CC4=O)cc2)cc1 (centres unmarked) [Compound 7]

More lines, now with the values behind:

Molecule: CC(=O)c1ccc(OCCOc2ccc(C(=O)c3ccc(CN(C)Cc4ccccc4)cc3)cc2)cc1O (as salt: HCl) [Compound 3, 1-{4-[2-(4-4-Benzylmethylaminomethylbenzoylphenoxy)ethoxy]-2-hydroxyphenyl}ethan-1-one]
melting point: 264 to 268 °C

Molecule: COc1cc(/C=C/C(=O)c2ccc(OCCO)cc2O)cc(OC)c1OC [Compound 2, (E)-1-[2-Hydroxy-4-(2-hydroxyethoxyphenyl)]-3-(3,4,5-trimethoxyphenyl)prop-2-en-1-one]
melting point: 186 to 188 °C
inhibition at 5.2 µM (hBACE-1; at 5.2 μM): 35.9%
inhibition at 5 µM (hBACE-1): 20%

Molecule: COc1cc(/C=C/C(=O)c2ccc(OCCOc3ccc(C(=O)c4ccc(CN(C)Cc5ccccc5)cc4)cc3)cc2O)cc(OC)c1OC [Compound 4, E-1-{4-[2-(4-4-Benzylmethylaminomethylbenzoylphenoxy)ethoxy]-2-hydroxyphenyl}-3-(3,4,5-trimethoxy-phenyl)prop-2-en-1-one]
ability to complex Cu(II) ions ([1]; UV-vis spectra, MOPS buffer pH 7.4/DMF 1:4): able to chelate the selected ion
association constant (order of magnitude) ([1]; estimated from titration data, 1:1 complex stoichiometry with Cu(II), MOPS pH 7.4/DMF 1:4): ~10^4
IC50 (SH-SY5Y cells): 23.7 ± 3.54 µM
selectivity index SI (SH-SY5Y cells; neurotoxicity IC50 versus BACE-1 IC50): around 22
IC50 (hBACE-1): 1.06 ± 0.15 µM
Cu(II)-Chelating Activity [2, 3]: 7.16%
Cu(II)-Chelating Activity [2, 4]: 10.77%
Cu(II)-Chelating Activity [2, 5]: 15.07% and 15.07 ± 1.32%

Molecule: CC(=O)c1ccc(OCCOc2ccc(C(=O)c3ccc(CN(C)Cc4ccccc4)cc3)cc2)cc1O [Compound 3, 1-{4-[2-(4-4-Benzylmethylaminomethylbenzoylphenoxy)ethoxy]-2-hydroxyphenyl}ethan-1-one]
IC50 (SH-SY5Y cells): 10.9 ± 1.63 µM
IC50 (hBACE-1): 3.18 ± 0.21 µM
Cu(II)-Chelating Activity [2, 3]: 0.00%
Cu(II)-Chelating Activity [2, 4]: 3.49%
Cu(II)-Chelating Activity [2, 5]: 5.37% and 5.37 ± 0.16%

Molecule: COc1ccc(C(=O)c2ccc(CN(C)Cc3ccccc3)cc2)cc1OC [Compound 1]
inhibition at 5 µM (hBACE-1): 20%
CatD inhibition (CatD): not inhib.

Molecule: CN(Cc1ccccc1)Cc1ccc(C(=O)c2ccc(OCCOc3ccc(C(=O)/C=C/c4cccc5ccccc45)c(O)c3)cc2)cc1 (as salt: HCl) [Compound 5, E-1-{4-[2-(4-4-Benzylmethylaminomethylbenzoylphenoxy)ethoxy]-2-hydroxyphenyl}-3-(naphthalen-1-yl)-prop-2-en-1-one]
melting point: 197 to 199 °C

Molecule: disodium salt of ethylene diaminetetraacetic acid [Na2EDTA, reference compound]
Cu(II)-Chelating Activity [2, 5]: 17.10 ± 1.44%

Molecule: COc1cc(/C=C/C(=O)c2ccc(OCCOc3ccc(C(=O)c4ccc(CN(C)Cc5ccccc5)cc4)cc3)cc2O)cc(OC)c1OC (as salt: HCl) [Compound 4, E-1-{4-[2-(4-4-Benzylmethylaminomethylbenzoylphenoxy)ethoxy]-2-hydroxyphenyl}-3-(3,4,5-trimethoxy-phenyl)prop-2-en-1-one]
melting point: 220 to 222 °C
